In the supplement of paper PMC11208160:

Test: recombinant UMI read abundance after kanamycin selection (control-corrected) (log10(CPM+1)); higher = more efficient recombination; extreme values may be limits of the assay; sequences stand for … in AGTGCAGAGAAAATCGGCCAGTTTTCTCTGCCTGCAGTCCGCATGCCGTGGGACCCCTTGGGTTCTAACCTGTTGCCTAGATTTATGCAGCGGACTGCCTTTCTCCCAAAGTGATAAACCGG…AGGTTGGTTTCACT; site = the 11-nt donor
How it was run: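 In Escherichia coli, a pool of donor and donor-binding-loop pairs, each with a 12-nt UMI, was tested for the IS621 bridge recombinase. Plating was on IPTG (0.07 mM) plus kanamycin, or without selection, in two replicates. Recombinant UMIs were amplified by PCR across the donor–target junction and sequenced, and counts were reported as log10(CPM+1) after averaging and control-derived scaling.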
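Also: IS621 bridge recombinase in Escherichia coli cells against a fixed T5 target plasmid.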

Sequence	recombinant UMI read abundance (log10)
GGCCCGTCATGGACCGGTTTTCCCGGTAATCCGTATTTGCA (site GGCCCGTCTTG)	1.73
GGCCTGGCATGGACCGGTTTTCCCGGTAATCCGTATTTGAG (site GGCCTGGCTCT)	0.666
GGCGACCCATGGACCGGTTTTCCCGGTAATCCGTATTTGCC (site GGCGACCCTGG)	0
GGCGTGGCATGGACCGGTTTTCCCGGTAATCCGTATTTGCA (site GGCGTGGCTTG)	2.55
GGCTACACATGGACCGGTTTTCCCGGTAATCCGTATTTGCA (site GGCTACACTTG)	1.86
GGCTAGACATGGACCGGTTTTCCCGGTAATCCGTATTTGAC (site GGCTAGACTGT)	2.02
GGCTCAACATGGACCGGTTTTCCCGGTAATCCGTATTTGCT (site GGCTCAACTAG)	0
GGCTGCTCATGGACCGGTTTTCCCGGTAATCCGTATTTGTG (site GGCTGCTCTCA)	0.427
GGCTTCCCATGGACCGGTTTTCCCGGTAATCCGTATTTGTC (site GGCTTCCCTGA)	0
GGGAAACCATGGACCGGTTTTCCCGGTAATCCGTATTTGGC (site GGGAAACCTGC)	0
GGGAAGCCATGGACCGGTTTTCCCGGTAATCCGTATTTGGG (site GAGAAGCCTCC)	0.00654
GGGAAGCCATGGACCGGTTTTCCCGGTAATCCGTATTTGGG (site GCGAAGCCTCC)	0
GGGAAGCCATGGACCGGTTTTCCCGGTAATCCGTATTTGGG (site GGGAAGCCTCC)	0.00361
GGGAAGCCATGGACCGGTTTTCCCGGTAATCCGTATTTGGG (site GTGAAGCCTCC)	0.0194
GGGACGTCATGGACCGGTTTTCCCGGTAATCCGTATTTGTT (site GGAACGTCTAA)	0.547
GGGACGTCATGGACCGGTTTTCCCGGTAATCCGTATTTGTT (site GGCACGTCTAA)	0.0541
GGGACGTCATGGACCGGTTTTCCCGGTAATCCGTATTTGTT (site GGGACGTCTAA)	1.78
GGGACGTCATGGACCGGTTTTCCCGGTAATCCGTATTTGTT (site GGTACGTCTAA)	0.0147
GGGAGGACATGGACCGGTTTTCCCGGTAATCCGTATTTGCC (site GGGAGGACTGG)	2.04
GGGATAACATGGACCGGTTTTCCCGGTAATCCGTATTTGCC (site GGGATAACTGG)	0
GGGATGACATGGACCGGTTTTCCCGGTAATCCGTATTTGCT (site GGGATGACTAG)	2.32
GGGATTGCATGGACCGGTTTTCCCGGTAATCCGTATTTGAC (site GGGATTGCTGT)	2.05
GGGCAGCCATGGACCGGTTTTCCCGGTAATCCGTATTTGGG (site GGGCAGCCTCC)	0.0377
GGGCATGCATGGACCGGTTTTCCCGGTAATCCGTATTTGAA (site GGGCATGCTTT)	1.59
GGGCCAACATGGACCGGTTTTCCCGGTAATCCGTATTTGTA (site GGACCAACTTA)	0.317

Sequence	recombinant UMI read abundance (log10)
GGGCCAACATGGACCGGTTTTCCCGGTAATCCGTATTTGTA (site GGCCCAACTTA)	0.0205
GGGCCAACATGGACCGGTTTTCCCGGTAATCCGTATTTGTA (site GGGCCAACTTA)	0.645
GGGCCAACATGGACCGGTTTTCCCGGTAATCCGTATTTGTA (site GGTCCAACTTA)	0.0061
GGGCGACCATGGACCGGTTTTCCCGGTAATCCGTATTTGTT (site GGGCGACCTAA)	0
GGGCGCCCATGGACCGGTTTTCCCGGTAATCCGTATTTGGG (site GGGCGCCCTCC)	0.0048
GGGCTGGCATGGACCGGTTTTCCCGGTAATCCGTATTTGAC (site GGGCTGGCTGT)	0.6
GGGGAGCCATGGACCGGTTTTCCCGGTAATCCGTATTTGAA (site GGGGAGCCTTT)	0
GGGGATACATGGACCGGTTTTCCCGGTAATCCGTATTTGAT (site GGGGATACTAT)	1.2
GGGGCAACATGGACCGGTTTTCCCGGTAATCCGTATTTGCA (site GGGGCAACTTG)	1.4
GGGGCAACATGGACCGGTTTTCCCGGTAATCCGTATTTGCA (site GGGGCACCTTG)	0.00712
GGGGCAACATGGACCGGTTTTCCCGGTAATCCGTATTTGCA (site GGGGCAGCTTG)	0
GGGGCAACATGGACCGGTTTTCCCGGTAATCCGTATTTGCA (site GGGGCATCTTG)	0
GGGGCACCATGGACCGGTTTTCCCGGTAATCCGTATTTGAA (site GGGGCACCTTA)	0.00926
GGGGCACCATGGACCGGTTTTCCCGGTAATCCGTATTTGAA (site GGGGCACCTTC)	0.018
GGGGCACCATGGACCGGTTTTCCCGGTAATCCGTATTTGAA (site GGGGCACCTTG)	0
GGGGCACCATGGACCGGTTTTCCCGGTAATCCGTATTTGAA (site GGGGCACCTTT)	0.0108
GGGGCACCATGGACCGGTTTTCCCGGTAATCCGTATTTGCC (site GGGGCACCTAG)	0.0374
GGGGCACCATGGACCGGTTTTCCCGGTAATCCGTATTTGCC (site GGGGCACCTCG)	0.0076
GGGGCACCATGGACCGGTTTTCCCGGTAATCCGTATTTGCC (site GGGGCACCTGG)	0
GGGGCACCATGGACCGGTTTTCCCGGTAATCCGTATTTGCC (site GGGGCACCTTG)	0.00491
GGGGCCCCATGGACCGGTTTTCCCGGTAATCCGTATTTGCA (site GGGGCACCTTG)	0.00505
GGGGCCCCATGGACCGGTTTTCCCGGTAATCCGTATTTGCA (site GGGGCCCCTTG)	0.411
GGGGCCCCATGGACCGGTTTTCCCGGTAATCCGTATTTGCA (site GGGGCGCCTTG)	0.0155
GGGGCCCCATGGACCGGTTTTCCCGGTAATCCGTATTTGCA (site GGGGCTCCTTG)	0.0122
GGGGGACCATGGACCGGTTTTCCCGGTAATCCGTATTTGCA (site GGGGAACCTTG)	0

Sequence	recombinant UMI read abundance (log10)
GGGGGACCATGGACCGGTTTTCCCGGTAATCCGTATTTGCA (site GGGGCACCTTG)	0
GGGGGACCATGGACCGGTTTTCCCGGTAATCCGTATTTGCA (site GGGGGACCTTG)	0
GGGGGACCATGGACCGGTTTTCCCGGTAATCCGTATTTGCA (site GGGGTACCTTG)	0
GGGGTACCATGGACCGGTTTTCCCGGTAATCCGTATTTGCA (site GGGGAACCTTG)	0
GGGGTACCATGGACCGGTTTTCCCGGTAATCCGTATTTGCA (site GGGGCACCTTG)	0
GGGGTACCATGGACCGGTTTTCCCGGTAATCCGTATTTGCA (site GGGGGACCTTG)	0
GGGGTACCATGGACCGGTTTTCCCGGTAATCCGTATTTGCA (site GGGGTACCTTG)	0
GGGGTGGCATGGACCGGTTTTCCCGGTAATCCGTATTTGGT (site GGAGTGGCTAC)	0.553
GGGGTGGCATGGACCGGTTTTCCCGGTAATCCGTATTTGGT (site GGCGTGGCTAC)	0.0131
GGGGTGGCATGGACCGGTTTTCCCGGTAATCCGTATTTGGT (site GGGGTGGCTAC)	0.659
GGGGTGGCATGGACCGGTTTTCCCGGTAATCCGTATTTGGT (site GGTGTGGCTAC)	0.146
GGGTATCCATGGACCGGTTTTCCCGGTAATCCGTATTTGTT (site CGGAATCCTAA)	0
GGGTATCCATGGACCGGTTTTCCCGGTAATCCGTATTTGTT (site GGGTATCCTAA)	0.0203
GGGTCACCATGGACCGGTTTTCCCGGTAATCCGTATTTGCA (site GGGACACCTTG)	0
GGGTCACCATGGACCGGTTTTCCCGGTAATCCGTATTTGCA (site GGGCCACCTTG)	0
GGGTCACCATGGACCGGTTTTCCCGGTAATCCGTATTTGCA (site GGGGCACCTTG)	0
GGGTCACCATGGACCGGTTTTCCCGGTAATCCGTATTTGCA (site GGGTCACCTTG)	0
GGGTGTGCATGGACCGGTTTTCCCGGTAATCCGTATTTGGC (site GGGTGTGCTGC)	3
GGGTTCCCATGGACCGGTTTTCCCGGTAATCCGTATTTGTC (site GGGTTCCCTGA)	0
GGTAAACCATGGACCGGTTTTCCCGGTAATCCGTATTTGAA (site GGTAAACCTTT)	0
GGTACGGCATGGACCGGTTTTCCCGGTAATCCGTATTTGTT (site GGTACGACTAA)	0.00937
GGTACGGCATGGACCGGTTTTCCCGGTAATCCGTATTTGTT (site GGTACGCCTAA)	0.0122
GGTACGGCATGGACCGGTTTTCCCGGTAATCCGTATTTGTT (site GGTACGGCTAA)	0.0127
GGTACGGCATGGACCGGTTTTCCCGGTAATCCGTATTTGTT (site GGTACGTCTAA)	0
GGTACGTCATGGACCGGTTTTCCCGGTAATCCGTATTTGCT (site GGTACGTCTAA)	0.0386
